In ChEMBL document CHEMBL4665840, “New antibacterial cadiolide analogues active against antibiotic-resistant strains” (Bioorg Med Chem Lett, 2020) one finds MIC and Activity data, which are given here for 16 molecules.

What is called MIC is the smallest concentration in the dilution series that meets the test's criterion for growth inhibition. Low values mean inhibition by little substance, high ones a need for much substance.

Series [1] concerns Staphylococcus aureus. In words: Antibacterial activity against Staphylococcus aureus EMRSA17. It is filed as functional.
Series [2] has as its system Enterococcus faecalis. In words: Antibacterial activity against vancomycin-resistant Enterococcus faecalis. The series is classed as functional.
Series [3] has as its system Staphylococcus aureus. In words: Antibacterial activity against Staphylococcus aureus NCTC12493.
Another series concerns Micrococcus luteus. In words: Antibacterial activity against Micrococcus luteus. The series is classed as functional.
Series [4] concerns Enterococcus faecalis. The series is described as follows: Antibacterial activity against Enterococcus faecalis NCTC12697. The series is classed as functional.
In the next series the test system is Bacillus cereus. In words: Antibacterial activity against Bacillus cereus. It is filed as functional.
The test system of a further series is Bacillus subtilis. In words: Antibacterial activity against Bacillus subtilis. The series is classed as functional.
The subject of series [5] is HaCaT. In words: Cytotoxicity against human HaCaT cells at 160 ug/ml incubated for 24 hrs by LDH release assay (reference value: 23.7 +/- 1.4%). The series is classed as cell-based. The following applies: at 160 µg/mL. For orientation: LDH in the medium is a marker of cell lysis.
Series [6] has as its system HaCaT. In words: Cytotoxicity against human HaCaT cells at 160 ug/ml incubated for 24 hrs by LDH release assay. It is filed as cell-based. The note with it: dose 160 µg/ml.

Converted amounts (≈) assume the structure as drawn. Where only a bound is given, the exact number is not on record here.

As for `O=C1O/C(=C\c2ccco2)C(c2cc(Br)c(O)c(Br)c2)=C1C(=O)c1ccco1`, the MIC against Staphylococcus aureus [1] came out at 128 µg/mL (≈ 253 µM); against Enterococcus faecalis [2], 256 µg/mL (≈ 506 µM); against Staphylococcus aureus [3], 64 µg/mL (≈ 126 µM); in the series with Micrococcus luteus it was 256 µg/mL (≈ 506 µM); against Enterococcus faecalis [4] it was 256 µg/mL (≈ 506 µM); with Bacillus cereus, 128 µg/mL (≈ 253 µM). For the same molecule, the minimal inhibitory concentration (MIC) in the series with Bacillus subtilis was 256 µg/mL (≈ 506 µM).

As for `O=C1O/C(=C\c2ccc(O)c(Br)c2)C(c2cc(Br)c(O)c(Br)c2)=C1C(=O)c1cc(Br)c(O)c(Br)c1` [CADIOLIDE D], the minimal inhibitory concentration (MIC) against Staphylococcus aureus [1] was found to be 64 µg/mL (≈ 80.5 µM); against Enterococcus faecalis [2], 64 µg/mL (≈ 80.5 µM); against Staphylococcus aureus [3], 32 µg/mL (≈ 40.3 µM); with Micrococcus luteus it was 64 µg/mL (≈ 80.5 µM); against Enterococcus faecalis [4], 64 µg/mL (≈ 80.5 µM); in the series on Bacillus cereus, 32 µg/mL (≈ 40.3 µM). 64 µg/mL (≈ 80.5 µM) was the least that counted as inhibitory against Bacillus subtilis (MIC).

For the molecule `O=C1O/C(=C\c2ccc(O)c(Br)c2)C(c2ccc(O)c(Br)c2)=C1C(=O)c1cccs1`, the minimal inhibitory concentration (MIC) is 16 µg/mL (≈ 29.2 µM) against Staphylococcus aureus [1]; 32 µg/mL (≈ 58.4 µM) against Enterococcus faecalis [2]; 8 µg/mL (≈ 14.6 µM) with Staphylococcus aureus [3]; 8 µg/mL (≈ 14.6 µM) in the series on Micrococcus luteus; 32 µg/mL (≈ 58.4 µM) against Enterococcus faecalis [4]; 4 µg/mL (≈ 7.3 µM) against Bacillus cereus. For the same molecule, the MIC in the series on Bacillus subtilis was determined as 8 µg/mL (≈ 14.6 µM).

With `CCCN1C(=O)C(C(=O)c2ccco2)=C(c2ccc(O)c(Br)c2)C1=Cc1ccc(O)c(Br)c1` (mixture of isomers), the Activity in the series with HaCaT [5] stood at 55.7%. Moreover, the minimum inhibitory concentration (MIC) with Staphylococcus aureus [1] came to 16 µg/mL; with Enterococcus faecalis [2], 16 µg/mL; against Staphylococcus aureus [3], 8 µg/mL; with Micrococcus luteus, 16 µg/mL; in the series with Enterococcus faecalis [4], 16 µg/mL; in the series with Bacillus cereus, 4 µg/mL. In the series with Bacillus subtilis, this molecule yielded a minimum inhibitory concentration (MIC) of 8 µg/mL.

As for `CN[C@H](CC(C)C)C(=O)N[C@H]1C(=O)N[C@@H](CC(N)=O)C(=O)N[C@H]2C(=O)N[C@H]3C(=O)N[C@H](C(=O)N[C@H](C(=O)O)c4cc(O)cc(O)c4-c4cc3ccc4O)[C@H](O)c3ccc(c(Cl)c3)Oc3cc2cc(c3O[C@@H]2O[C@H](CO)[C@@H](O)[C@H](O)[C@H]2O[C@H]2C[C@](C)(N)[C@H](O)[C@H](C)O2)Oc2ccc(cc2Cl)[C@H]1O` [VANCOMYCIN], the minimum inhibitory concentration (MIC) in the series with Enterococcus faecalis [2] is > 64 µg/mL; against Micrococcus luteus, ≤ 0.13 µg/mL; against Bacillus subtilis, 0.5 µg/mL (≈ 0.345 µM).

On to `Cn1cc(/C=C2\OC(=O)C(C(=O)c3ccc(O)c(Br)c3)=C2c2ccc(O)c(Br)c2)c2ccccc21`, for which the Activity entry with HaCaT [6] is recorded as “Non-Toxic”. In addition, the MIC was found to be 8 µg/mL (≈ 13.4 µM) with Staphylococcus aureus [1]; 8 µg/mL (≈ 13.4 µM) against Enterococcus faecalis [2]; 2 µg/mL (≈ 3.36 µM) in the series with Staphylococcus aureus [3]; 2 µg/mL (≈ 3.36 µM) in the series on Micrococcus luteus; 16 µg/mL (≈ 26.9 µM) against Enterococcus faecalis [4]; 2 µg/mL (≈ 3.36 µM) against Bacillus cereus. Moreover, the MIC with Bacillus subtilis came out at 4 µg/mL (≈ 6.72 µM).

As to `O=C1O/C(=C\c2ccco2)C(c2ccc(O)c(Br)c2)=C1C(=O)c1ccc(O)c(Br)c1`, the minimal inhibitory concentration (MIC) was determined as 64 µg/mL (≈ 120 µM) in the series with Staphylococcus aureus [1]; 128 µg/mL (≈ 241 µM) against Enterococcus faecalis [2]; 32 µg/mL (≈ 60.1 µM) in the series on Staphylococcus aureus [3]; 32 µg/mL (≈ 60.1 µM) against Micrococcus luteus; 128 µg/mL (≈ 241 µM) in the series on Enterococcus faecalis [4]; 32 µg/mL (≈ 60.1 µM) against Bacillus cereus. In addition, in the series with Bacillus subtilis, the MIC was determined as 32 µg/mL (≈ 60.1 µM).

Turning to `O=C1O/C(=C\c2cccs2)C(c2cc(Br)c(O)c(Br)c2)=C1C(=O)c1cc(Br)c(O)c(Br)c1`, the MIC in the series with Staphylococcus aureus [1] stood at 256 µg/mL (≈ 363 µM); against Enterococcus faecalis [2], 32 µg/mL (≈ 45.3 µM); against Staphylococcus aureus [3] it was 32 µg/mL (≈ 45.3 µM); against Micrococcus luteus it was 128 µg/mL (≈ 181 µM); against Enterococcus faecalis [4], 64 µg/mL (≈ 90.7 µM); in the series on Bacillus cereus it was 64 µg/mL (≈ 90.7 µM). The same molecule registered a minimum inhibitory concentration (MIC) against Bacillus subtilis of 32 µg/mL (≈ 45.3 µM).

Turning to `O=C1O/C(=C\c2ccco2)C(c2ccco2)=C1C(=O)c1cc(Br)c(O)c(Br)c1`, the minimal inhibitory concentration (MIC) with Staphylococcus aureus [1] was found to be 64 µg/mL (≈ 126 µM); against Enterococcus faecalis [2] it was 64 µg/mL (≈ 126 µM); against Staphylococcus aureus [3] it was 16 µg/mL (≈ 31.6 µM); against Micrococcus luteus it was 32 µg/mL (≈ 63.2 µM); against Enterococcus faecalis [4], 64 µg/mL (≈ 126 µM); with Bacillus cereus, 16 µg/mL (≈ 31.6 µM). Also, the MIC against Bacillus subtilis was determined as 32 µg/mL (≈ 63.2 µM).

Consider `O=C1O/C(=C\c2cc(Br)c(O)c(Br)c2)C(c2cc(Br)c(O)c(Br)c2)=C1C(=O)c1ccco1`, for which the MIC in the series with Staphylococcus aureus [1] came to 64 µg/mL (≈ 92.8 µM); against Enterococcus faecalis [2], 64 µg/mL (≈ 92.8 µM); in the series with Staphylococcus aureus [3] it was 32 µg/mL (≈ 46.4 µM); with Micrococcus luteus it was 32 µg/mL (≈ 46.4 µM); against Enterococcus faecalis [4] it was 128 µg/mL (≈ 186 µM); against Bacillus cereus, 16 µg/mL (≈ 23.2 µM). In the series on Bacillus subtilis, the minimal inhibitory concentration (MIC) was found to be 32 µg/mL (≈ 46.4 µM).

Take `O=C1O/C(=C\c2cccs2)C(c2ccc(O)c(Br)c2)=C1C(=O)c1cc(Br)c(O)c(Br)c1`: the minimal inhibitory concentration (MIC) against Staphylococcus aureus [1] amounted to 32 µg/mL (≈ 51 µM); in the series with Enterococcus faecalis [2] it was 32 µg/mL (≈ 51 µM); against Staphylococcus aureus [3] it was 8 µg/mL (≈ 12.8 µM); with Micrococcus luteus, 32 µg/mL (≈ 51 µM); in the series with Enterococcus faecalis [4], 32 µg/mL (≈ 51 µM); against Bacillus cereus it was 8 µg/mL (≈ 12.8 µM). Further, the MIC in the series with Bacillus subtilis was 4 µg/mL (≈ 6.38 µM).

Consider `O=C1O/C(=C\c2cc(Br)c(O)c(Br)c2)C(c2cccs2)=C1C(=O)c1cc(Br)c(O)c(Br)c1`, for which the minimum inhibitory concentration (MIC) with Staphylococcus aureus [1] stood at 16 µg/mL (≈ 22.7 µM); with Enterococcus faecalis [2], 8 µg/mL (≈ 11.3 µM); against Staphylococcus aureus [3], 16 µg/mL (≈ 22.7 µM); against Micrococcus luteus, 8 µg/mL (≈ 11.3 µM); in the series on Enterococcus faecalis [4], 16 µg/mL (≈ 22.7 µM); against Bacillus cereus, 8 µg/mL (≈ 11.3 µM). Besides, inhibition of growth against Bacillus subtilis (MIC) required 8 µg/mL (≈ 11.3 µM).

`O=C1O/C(=C\c2cc(Br)c(O)c(Br)c2)C(c2ccco2)=C1C(=O)c1cc(Br)c(O)c(Br)c1`: the MIC in the series on Staphylococcus aureus [1] amounted to 64 µg/mL (≈ 92.8 µM); against Enterococcus faecalis [2] it was 64 µg/mL (≈ 92.8 µM); against Staphylococcus aureus [3], 32 µg/mL (≈ 46.4 µM); with Micrococcus luteus it was 16 µg/mL (≈ 23.2 µM); in the series with Enterococcus faecalis [4], 32 µg/mL (≈ 46.4 µM); against Bacillus cereus, 16 µg/mL (≈ 23.2 µM). In addition, the MIC against Bacillus subtilis came to 16 µg/mL (≈ 23.2 µM).

As for `O=C1O/C(=C\c2c[nH]c3ccccc23)C(c2ccc(O)c(Br)c2)=C1C(=O)c1ccc(O)c(Br)c1`, in the series on HaCaT [6], the Activity entry is listed as “Non-Toxic”. The MIC in the series on Staphylococcus aureus [1] was determined as 4 µg/mL (≈ 6.88 µM); in the series with Enterococcus faecalis [2] it was 8 µg/mL (≈ 13.8 µM); with Staphylococcus aureus [3], 2 µg/mL (≈ 3.44 µM); in the series on Micrococcus luteus it was 8 µg/mL (≈ 13.8 µM); with Enterococcus faecalis [4], 8 µg/mL (≈ 13.8 µM); with Bacillus cereus, 4 µg/mL (≈ 6.88 µM). Inhibition of growth with Bacillus subtilis (MIC) required 8 µg/mL (≈ 13.8 µM).

As for `O=C1O/C(=C\c2ccc(O)c(Br)c2)C(c2ccc(O)c(Br)c2)=C1C(=O)c1ccc(O)c(Br)c1`, the Activity entry in the series on HaCaT [6] was “Non-Toxic”. Also, the minimal inhibitory concentration (MIC) in the series on Staphylococcus aureus [1] came out at 8 µg/mL (≈ 12.6 µM); against Enterococcus faecalis [2], 32 µg/mL (≈ 50.2 µM); in the series with Staphylococcus aureus [3] it was 8 µg/mL (≈ 12.6 µM); in the series on Micrococcus luteus it was 8 µg/mL (≈ 12.6 µM); with Enterococcus faecalis [4] it was 16 µg/mL (≈ 25.1 µM); in the series with Bacillus cereus it was 8 µg/mL (≈ 12.6 µM). Besides, it took 16 µg/mL (≈ 25.1 µM) to inhibit growth in the series with Bacillus subtilis (MIC).

Consider GENTAMICIN, for which the MIC in the series on Staphylococcus aureus [1] was > 64 µg/mL; in the series on Enterococcus faecalis [2] it was 8 µg/mL; in the series with Micrococcus luteus, 0.25 µg/mL; in the series with Enterococcus faecalis [4] it was 8 µg/mL; with Bacillus cereus, 0.25 µg/mL; against Bacillus subtilis it was 0.25 µg/mL.
